What was measured:
p185^Her-2/neu = test: Flow cytometric analysis of cell surface-associated p185Her-2/neu; type: cell-based, human; settings: scavenger of reactive oxygen species added to OA treatment
Text: FIG. 1. […] FIG. 2. […] The amount of cell surface-associated p185^Her-2/neu was quantified by flow cytometric analyses using a specific antibody against the extracellular domain of p185^Her-2/neu (Ab-5), as described herein. The mean fluorescence signal±SD (n=3) was quantified using the geo mean fluorescence (GM) parameter provided with the Cell Quest Software (Becton Dickinson). […] After labeling, cells were washed thoroughly, and localization of p185^Her-2/neu was detected by indirect immunofluorescence by incubating with FITC-conjugated anti-mouse IgG. After counterstaining with DAPI, cells were examined and photographed using a Zeiss fluorescent microscope equipped with a built-in camera. […] Before experiments, cells were serum-starved overnight and then cultured in IMEM containing 0.1% FBS in the absence or presence of GLA (Sigma Chemical Co., St. Louis, Mo.). GLA was prepared at a concentration of 1 mg/mL in ethanol and was added to a final concentration of 0, 5, 10, or 20 μg/mL; an equal volume of ethanol was added to control cells. […] A) Cell surface expression of Her-2/neu protein in BT-474 and SK-Br3 cells was determined by flow cytometry using a mouse anti-Her-2/neu antibody directed against the extracellular domain of the p185^Her-2/neu oncoprotein (clone Ab-5; Oncogene Research Products; San Diego, Calif.). Briefly, after GLA or control treatment, cells were washed, harvested, resuspended in phosphate-buffered saline (PBS) containing 1% FBS, and incubated with 5 μg/mL Ab-5 antibody for 1 hour at 4° C. The cells were washed again and then incubated with a fluorescein isothiocyanate (FITC)-conjugated anti-mouse IgG secondary antibody (Jackson ImnunoResearch Laboratories, West Grove, Pa.) diluted 1:200 in cold PBS containing 1% FBS for 45 minutes at 4° C. The cells were washed once more in cold PBS, and flow cytometric analysis was performed with a FACScalibur flow cytometer (Becton Dickinson, San Diego, Calif.) equipped with Cell Quest Software (Becton Dickinson). […] As a control for nonspecific immunofluorescence, cells were stained with the secondary antibody alone (solid black line). The mean fluorescence signal associated with cells for labeled p185^Her-2/neu was quantified using the Geo Mean (GM) fluorescence parameter provided with the software. […] B) Immunoblot analysis of Her-2/neu and PEA3 proteins in control- and GLA-treated BT-474 and SK-Br3 cells. […] Immunoreactive bands were detected by enhanced chemiluminescence reagent (Pierce, Rockford, Ill.). Blots were reprobed with an anti-β-actin goat polyclonal antibody (Santa Cruz Biotechnology) to control for protein loading and transfer. Densitometric values of protein bands were quantified using Scion Imaging Software (Scion Corp., Frederick, Md.).

Lipogenic Cells = test: Effect of fatty acids, lipogenic cells (Table 2); type: cell-based
Breast Cancer Cells = test: Effect of fatty acids, breast cancer cells (Table 2); type: cell-based; settings: FAS named only for oleic acid

Cc1c(C)c2c(c(C)c1O)CCC(C)(CCCC(C)CCCC(C)CCCC(C)C)O2 (racemic) [vitamin E, dl-α-tocopherol, reference compound]
prevention of OA-induced suppression of Her-2/neu overexpression (p185^Her-2/neu): not significantly prevented

CCC=CCC=CCC=CCCCCCCCC(=O)O [ω-3 Alpha-Linolenic acid, 9,12,15-octadecatrienoic acid]
Effect of Fatty Acids: Lipogenic Cells (Lipogenic Cells): No effect | Effect of Fatty Acids: Breast Cancer Cells (Breast Cancer Cells): Potent Down-regulator

CCC=CCC=CCC=CCC=CCC=CCC=CCCC(=O)O [ω-3 Docosahexaenoic acid, 4,7,10,13,16,19-docosahexaenoic acid, reference compound]
Effect of Fatty Acids: Lipogenic Cells (Lipogenic Cells): No effect | Effect of Fatty Acids: Breast Cancer Cells (Breast Cancer Cells): Weak Down-regulator

CCC=CCC=CCC=CCC=CCC=CCCCC(=O)O [ω-3 Eicosapentaenoic acid, 5,8,11,14,17-eicosapentaenoic acid, reference compound]
Effect of Fatty Acids: Lipogenic Cells (Lipogenic Cells): Down-regulator | Effect of Fatty Acids: Breast Cancer Cells (Breast Cancer Cells): No effect

CCCCCC=CCC=CCCCCCCCC(=O)O [ω-6 Linoleic acid, 9,12-octadecadienoic acid, reference compound]
Effect of Fatty Acids: Lipogenic Cells (Lipogenic Cells): Potent | Effect of Fatty Acids: Breast Cancer Cells (Breast Cancer Cells): No effect

— US20070207975A1, “Materials and methods for treating and preventing Her-2/neu overexpressing, FAS-elevated cancer cells” (EVANSTON NORTHWESTERN HEALTHCARE, priority 2006, published 2007)
